Tests used:
E. coli (ATCC 25922) = experiment: MIC against E. coli; type: cell-based; conditions: Escherichia coli, ATCC25922; Gram −; 16 h, 37° C.
Method: (§1) Minimum Inhibitory Concentrations (MICs) Against Bacteria.
(§2) The antimicrobial activity of the compounds was tested on the following six bacteria strains: K. pneumoniae (ATCC 13383), P. aeruginosa (ATCC27853), E. coli (ATCC 25922), vancomycin-resistant Enterococcus faecalis(ATCC 700802), Methicillin-resistant S. aureus (MRSA, ATCC 33591), Methicillin-resistant S. epidermidis (MRSE, RP62A). The procedures were followed as reported previously (Hancock et al., Immunobiology 2006, 211, 315-322). Briefly, a single colony of each bacterium was inoculated in 3 mL TSB medium and incubated overnight at 37° C. Then the bacteria culture was diluted at 1:100 and the bacteria were allowed to grow to mid-logarithmic phase. Next, 50 μL of 2-fold serial dilutions of compounds (0.1-25 μg/mL) were added the 96-well plate containing aliquots of 50 μL of bacteria suspension (1×10^6 CFU/mL) in each well. The mixture was incubated at 37° C. for 16 h, and their absorption at 600 nm wavelength was read on a Biotek Synergy HT microtiter plate reader. […] The experiments were repeated at least three times with duplicates each time. HC50 means the concentration causing 50% hemolysis.

[1] = test system: P. aeruginosa (ATCC27853); experiment: MIC against P. aeruginosa; type: cell-based; conditions: Pseudomonas aeruginosa, ATCC27853; Gram −; 16 h, 37° C.
Method: as §1, §2

[2] = test system: K. pneumoniae (ATCC 13383); experiment: MIC against K. pneumoniae; type: cell-based; conditions: Klebsiella pneumoniae, ATCC13383; Gram −; 16 h, 37° C.
Method: as §1, §2

[3] = test system: Methicillin-resistant S. aureus (MRSA, ATCC 33591); experiment: MIC against MRSA; type: cell-based; conditions: Staphylococcus aureus; Gram +; 16 h, 37° C.
Method: as §1, §2

[4] = test system: Methicillin-resistant S. epidermidis (MRSE, RP62A); experiment: MIC against MRSE; type: cell-based; conditions: Staphylococcus epidermidis, MRSE; Gram +; 16 h, 37° C.
Method: as §1, §2

[5] = test system: vancomycin-resistant Enterococcus faecalis (ATCC 700802); experiment: MIC against VRE; type: cell-based; conditions: Gram +; 16 h, 37° C.
Method: as §1, §2

[6] = test system: human red blood cells (hRBCs); experiment: Hemolytic assay; type: cell-based
Method: The freshly drawn, K2EDTA treated human red blood cells (hRBCs) were washed with 1×PBS buffer, and centrifuged at 3500 rpm for 10 min. The step was repeated until the supernatant became clear. The supernatant was removed, and the RBCs were diluted into 5% v/v suspension. 50 μL of the suspension was incubated with 50 μL of compounds of different concentrations at 37° C. for 1 h. The mixture was centrifuged at 3500 rpm for 10 min. Subsequently, to 30 μL of the supernatant 100 μL PBS was added, and the absorbance of the mixture at 540 nm was read on a Biotek Synergy HT plate reader. The positive control was 2% Triton X-100, and the negative control was 1×PBS alone. The hemolysis activity was calculated by the formula % hemolysis=(Abssample−AbsPBS)/(AbsTriton−AbsPBS)×100%. The experiment was repeated at least three times with duplicates each time.

E. coli = experiment: Time-kill study; type: cell-based
Method: The killing activity was monitored for the first 2 h. The concentrations for compound 11 were 2×MIC, 4×MIC, and 8×MIC, respectively.
Time-kill studies were conducted to investigate the bacterial killing kinetics of compounds 11 and 12 by using E. Coli. Briefly, the bacteria […] grew to mid-logarithmic phase in TSB medium, from which the suspension (10^6 CFU/ml) was made. The suspension was incubated with different concentrations of 11 or 12 for 10 min, 30 min, 1 h and 2 h respectively. The mixtures were diluted by 10^2 to 10^4 fold and spread on TSB agar plates. After incubation at 37° C. overnight, the colonies on the plates were counted and plotted against the incubation time. […] Cell colonies were counted in agar plates at 12.5, 25, and 50 μg/mL. Compound 11 at the concentration of 12.5 or 25 μg/mL completely removed all bacteria in 2 hours, and at 50 μg/mL it completely removed bacteria in 0.5 hour. Compound 12 killed E. Coli completely in 0.5 hour at the concentration of 12.5 μg/mL.

S. aureus ATCC 33591 = experiment: Thigh burden infection model in neutropenic mice; type: in vivo, CD-1 female mice; conditions: 5 mg/kg i.v. at 1 and 7 h after infection, thighs harvested at 25 h
Method: Neutropenic mice (n=4 per group) were inoculated in the posterior thigh muscles with S. aureus ATCC 33591 at 1×10^6 CFU per thigh and then treated with compounds 11 and 12 (5 mg/kg per dose) by i.v. bolus injection in the tail vein at 1 and 7 h after infection.
A thigh burden model was employed to evaluate the in vivo anti-infective activity of compounds 11 and 12, in which the thigh muscle of neutropenic mice was inoculated with S. aureus, followed by intravenous (i.v.) administration of corresponding compounds. All protocols and methods associated with animal experiments were approved by University of South Florida (USF) Institutional Animal Care and Use Committee. The in vivo experiment on the mouse model of the thigh burden infection with MRSA was conducted adapted from previously reported protocol. The CD-1 female mice which were 6 to 8 weeks old and around 25 g in weights were used for the study. Neutropenic Mice were induced by injecting cyclophosphamide (150 mg/kg) intraperitoneally twice at 4 and 1 days before bacterial inoculation. One MRSA colony from tryptic soy agar (TSA) cultures was allowed to grow in tryptic soy broth (TSB) overnight at 37° C., then 100 μL culture was withdrawn and diluted with TSB to a total volume of 4 mL, which was subsequently incubated at 37° C. for another 6 h. […] The formed colonies were counted to calculate CFU per thigh.

[7] = test system: six bacteria strains (K. pneumoniae, P. aeruginosa, E. coli, VRE, MRSA, MRSE); experiment: Antimicrobial activity on the panel of six bacteria strains; type: cell-based
Method: as §1, §2

MIC (E. coli (ATCC 25922)): 1.5 µg/mL
MIC [1]: 6 µg/mL
MIC [2]: 1.5 µg/mL
MIC [3]: 0.33 µg/mL
MIC [4]: 0.75 µg/mL
MIC [5]: 0.75 µg/mL
SMILES: CCCCCCN1C(=N)N(CC(=O)Nc2ccc(NC(=O)CN3C[C@H](Cc4ccccc4)N(CCCCCC)C3=N)cc2)C[C@@H]1Cc1ccccc1 [Compound 11]
selectivity, hemolytic activity against MIC values of MRSA [6]: 769 folds
time to completely remove all bacteria (E. coli; 12.5 μg/mL): 2 h
time to completely remove all bacteria (E. coli; 25 μg/mL): 2 h
time to completely remove all bacteria (E. coli; 50 μg/mL): 0.5 h
decrease in colony-forming unit (CFU) per thigh (S. aureus ATCC 33591): 3 log10 CFU
antibacterial activity against the tested bacteria (in words) [7]: potent and broad-spectrum activity
